Reference: US20250109141A1, “BRD4 PROTEIN DEGRADER COMPOUND, AND PREPARATION METHOD AND USE THEREOF” (Miracure Biotechnology Limited, priority 2023, published 2025)
Like-named read-outs stand apart in the source and are kept apart here.

What was measured:
BRD4 = BRD4 (Homo sapiens, UniProt O60885); assay: BRD4 degradation assay (Western-blot / Simple Western) in 22RV1; settings: 22RV1 cells, target content as percentage of control (DMSO = 100%)
22RV1 = assay: Cell proliferation assay (CellTiterGlo, 72 h), 22RV1; type: cell-based; settings: Homo sapiens, read-out: 22Rv1 ATP average IC50
Protocol: All incubations were performed at 37° C. in a humidified carbon dioxide incubator.
(§1) The cells were seeded in a 96-well plate (white wall/transparent bottom) at 5000 cells/well and cultured overnight.
(§2) On day 2, A stock solution of the compound at a concentration of 10 mM was subjected to an 8-fold serial dilution to obtain 8 concentration points. 2 μL of the compound solution at each concentration point was added to 98 μL of fresh medium, and the mixture was mixed homogeneously. Then, 5 μL of the compound solution diluted in the medium at each concentration point was added to 100 μL of overnight medium containing the cells, and 2 replicates were set for each concentration. The mixture was cultured for 72 h.
(§3) After 72 h of compound treatment, the plate was equilibrated to room temperature, 100 μL of CellTiterGlo (Promega) was added. The mixture was mixed homogeneously for 2 min, left to stand at room temperature for 10 min, and then read for luminescence values on a SpectraMax M5 microplate reader to evaluate cell viability. The positive control was 1% Tween-20 and the negative control was 0.1% DMSO. IC50 was generated by 4-parameter non-linear regression fitting in GraphPad Prism.

LNCaP = assay: Cell proliferation assay (CellTiterGlo, 72 h), LNCaP; type: cell-based; settings: Homo sapiens, LNCap cells, 72 h compound treatment, read-out: LNCap ATP average IC50
Protocol: The cell line used was 22RV1 or LNCaP, and the medium was RPMI-1640 containing 10% FBS and antibiotics. All incubations were performed at 37° C. in a humidified carbon dioxide incubator.
On day 1, cells were digested with 0.25% trypsin (containing EDTA) and collected by centrifugation.
as §1, §2, §3

[1] = 22Rv1 cells, 72 h compound treatment, CellTiterGlo

Row | SMILES | BRD4 degradation of 22RV1 (200 nM 5 h) (BRD4) | IC50 (22RV1; [1]) | IC50 (LNCaP) | IC50 (22RV1; 22Rv1, 72 h)
1 | Cc1sc2c(c1C)C(c1ccc(/C=C/CN)cc1)=N[C@@H](CC(=O)OC1(C)CC1)c1nnc(C)n1-2 [Compound 9137] | B (20%<B<50%) | < 50 nM | < 50 nM | 
2 | Cc1sc2c(c1C)C(c1ccc(C#CCN)cc1)=N[C@@H](CC(=O)OCC1(C)COC1)c1nnc(C)n1-2 [Compound 9112] | D (80%<D<100%) |  | 50 to 200 nM | 50 to 200 nM
3 | CONCC#Cc1ccc(C2=N[C@@H](CC(=O)OC(C)(C)C)c3nnc(C)n3-c3ccc(OC)cc32)cc1 [Compound 9078] | B (20%<B<50%) |  | < 50 nM | < 50 nM
4 | Cc1sc2c(c1C)C(c1ccc(C#CCN)cc1)=N[C@@H](Cc1nccs1)c1nnc(C)n1-2 [Compound 9135] | B (20%<B<50%) |  | < 50 nM | 50 to 200 nM
5 | Cc1sc2c(c1C)C(c1ccc(C#CCN)cc1)=N[C@@H](CC(=O)OC1(C)CC1)c1nnc(C)n1-2 [Compound 9103] | B (20%<B<50%) |  | < 50 nM | < 50 nM
6 | CONC/C=C/c1ccc(C2=N[C@@H](CC(=O)OC(C)(C)C)c3nnc(C)n3-c3ccc(OC)cc32)cc1 [Compound 9079] | A (A<20%) |  | < 50 nM | < 50 nM
7 | Cc1sc2c(c1C)C(c1ccc(/C=C/CN)cc1)=N[C@@H](Cc1nccs1)c1nnc(C)n1-2 [Compound 9136] | C (50%<C<80) |  | < 50 nM | < 50 nM
8 | Cc1sc2c(c1C)C(c1ccc(C#CCNC(=N)NO)cc1)=N[C@@H](CC(=O)OC(C)(C)C)c1nnc(C)n1-2 [Compound 9111] | D (80%<D<100%) | 200 to 500 nM | 50 to 200 nM | 
9 | CNC(=O)C#Cc1ccc(C2=N[C@@H](CC(=O)OC(C)(C)C)c3nnc(C)n3-c3sc(C)c(C)c32)cc1 [Compound 9104] | D (80%<D<100%) | < 50 nM |  | 
10 | Cc1sc2c(c1C)C(c1ccc(-c3ccc(CN)o3)cc1)=N[C@@H](CC(=O)OC(C)(C)C)c1nnc(C)n1-2 [Compound 9071] | C (50%<C<80) | 50 to 200 nM | 50 to 200 nM | 
11 | COc1ccc2c(c1)C(c1ccc(C#CCN)cc1)=N[C@@H](CC(=O)OC(C)(C)C)c1nnc(C)n1-2 [Compound 9080] | B (20%<B<50%) |  | 50 to 200 nM | < 50 nM
12 | Cc1sc2c(c1C)C(c1ccc(/C=C/CNO)cc1)=N[C@@H](CC(=O)OC1(C)CC1)c1nnc(C)n1-2 [Compound 9184] | A (A<20%) | < 50 nM | < 50 nM | 
13 | COc1ccc2c(c1)C(c1ccc(/C=C/CNO)cc1)=N[C@@H](CC(=O)OC(C)(C)C)c1nnc(C)n1-2 [Compound 9077] | A (A<20%) |  | < 50 nM | < 50 nM
14 | Cc1sc2c(c1C)C(c1ccc(C#CCN)cc1)=N[C@@H](Cc1nnc(C(C)C)o1)c1nnc(C)n1-2 [Compound 9160] | C (50%<C<80) |  | < 50 nM | < 50 nM
15 | Cc1sc2c(c1C)C(c1ccc(/C=C/CNC(=N)NO)cc1)=N[C@@H](CC(=O)OC(C)(C)C)c1nnc(C)n1-2 [Compound 9114] | C (50%<C<80) | 50 to 200 nM |  | 
16 | CONCC#Cc1ccc(C2=N[C@@H](CC(=O)OC(C)(C)C)c3nnc(C)n3-c3sc(C)c(C)c32)cc1 [Compound 9064] |  | < 50 nM | < 50 nM | 
17 | CCNC(=O)C[C@@H]1N=C(c2ccc(Cl)cc2)c2cc(OC)ccc2-n2c(C)nnc21 [I-BET-762, reference compound] |  | > 500 nM | > 500 nM | 
18 | Cc1sc2c(c1C)C(c1ccc(/C=C/C=N\O)cc1)=N[C@@H](CC(=O)OC(C)(C)C)c1nnc(C)n1-2 [Compound 9132-B] | D (80%<D<100%) | 50 to 200 nM | 50 to 200 nM | 
19 | Cc1sc2c(c1C)C(c1ccc(N3CC(CN)C3)cc1)=N[C@@H](CC(=O)OC(C)(C)C)c1nnc(C)n1-2 [Compound 9061] |  | 50 to 200 nM | 200 to 500 nM | 

Row | SMILES | BRD4 degradation of 22RV1 (200 nM 5 h) (BRD4) | IC50 (22RV1; [1]) | IC50 (LNCaP) | IC50 (22RV1; 22Rv1, 72 h)
20 | Cc1sc2c(c1C)C(c1ccc(C#CCN)cc1)=N[C@@H](CC(=O)NN)c1nnc(C)n1-2 [Compound 9018] |  |  | > 500 nM | > 500 nM
21 | Cc1sc2c(c1C)C(c1ccc(C#CCNO)cc1)=N[C@@H](Cc1nccs1)c1nnc(C)n1-2.Cl [Compound 9173] | C (50%<C<80) | < 50 nM | < 50 nM | 
22 | Cc1sc2c(c1C)C(c1ccc(-c3cnc(CN)s3)cc1)=NC(CC(=O)OC(C)(C)C)c1nnc(C)n1-2 (stereo not drawn) [Compound 9073] |  | 50 to 200 nM | < 50 nM | 
23 | Cc1sc2c(c1C)C(c1ccc(/C=C/C=N/O)cc1)=N[C@@H](CC(=O)OC(C)(C)C)c1nnc(C)n1-2 [Compound 9132-A] | D (80%<D<100%) | 50 to 200 nM | < 50 nM | 
24 | CONC/C=C/c1ccc(C2=N[C@@H](CC(=O)OC(C)(C)C)c3onc(C)c3-c3ccccc32)cc1 [Compound 9097] |  | > 500 nM | > 500 nM | 
25 | Cc1sc2c(c1C)C(c1ccc(-c3ccoc3CN)cc1)=N[C@@H](CC(=O)OC(C)(C)C)c1nnc(C)n1-2 [Compound 9060] |  | 200 to 500 nM | 50 to 200 nM | 
26 | COc1ccc2c(c1)C(c1ccc(C#CCN)cc1)=N[C@@H](CC(=O)N(C)CCO)c1nnc(C)n1-2 [Compound 9063] |  |  | > 500 nM | > 500 nM
27 | CCNC(=O)C[C@@H]1N=C(c2ccc(C#CCN)cc2)c2cc(OC)ccc2-n2c(C)nnc21 [Compound 9051] |  |  | > 500 nM | > 500 nM
28 | Cc1noc2c1-c1ccccc1C(c1ccc(C#CCN)cc1)=N[C@H]2CC(=O)OC(C)(C)C [Compound 9098] |  | > 500 nM | > 500 nM | 
29 | Cc1sc2c(c1C)C(c1ccc(C#CCN)cc1)=N[C@@H](CC(=O)N(C)O)c1nnc(C)n1-2 [Compound 9025] |  |  | 50 to 200 nM | 200 to 500 nM
30 | Cc1sc2c(c1C)C(c1ccc(-c3cccc(CN)c3)cc1)=NC(CC(=O)OC(C)(C)C)c1nnc(C)n1-2 (stereo not drawn) [Compound 9085] |  | > 500 nM | 50 to 200 nM | 
31 | COc1ccc2c(c1)C(c1ccc3c(c1)NC(=O)CC3)=N[C@@H](CC(=O)OC(C)(C)C)c1nnc(C)n1-2 [Compound 9211] |  |  | > 500 nM | > 500 nM
32 | Cc1sc2c(c1C)C(c1ccc(-c3csc(CN)n3)cc1)=NC(CC(=O)OC(C)(C)C)c1nnc(C)n1-2 (stereo not drawn) [Compound 9072] |  | 50 to 200 nM | < 50 nM | 
33 | Cc1noc2c1-c1ccccc1C(c1ccc(/C=C/CN)cc1)=N[C@H]2CC(=O)OC(C)(C)C [Compound 9122] |  | > 500 nM | 50 to 200 nM | 
34 | Cc1sc2c(c1C)C(c1ccc(-c3ccc(CN)cc3)cc1)=NC(CC(=O)OC(C)(C)C)c1nnc(C)n1-2 (stereo not drawn) [Compound 9084] |  | 200 to 500 nM | 50 to 200 nM | 
35 | CC(=O)NN(C)CC#Cc1ccc(C2=N[C@@H](CC(=O)OC(C)(C)C)c3nnc(C)n3-c3sc(C)c(C)c32)cc1 [Compound 9047] |  | < 50 nM | > 500 nM | 
36 | Cc1sc2c(c1C)C(c1ccc(C#CCN)cc1)=N[C@@H](CC(=O)NCCO)c1nnc(C)n1-2 [Compound 9076] |  |  | 200 to 500 nM | > 500 nM
37 | COc1ccc2c(c1)C(c1ccc(/C=C/CNO)c(F)c1)=N[C@@H](CC(=O)O)c1nnc(C)n1-2 [Compound 9214] |  |  | > 500 nM | > 500 nM
